From patent publication US11471534B2, “Chitosan-pluronic complex and nano-carrier comprising same” (KOREA INSTITUTE OF CERAMIC ENGINEERING AND TECHNOLOGY, priority 2017, dated 2022)

Test: Distribution of model drug (Nile red) in skin, fluorescence microscope on cryo-sections
Assay type: in vitro ADME, human
Conditions: after the skin penetration experiment, 20 μm cryo-sections
Method: After completing a skin penetration experiment of the drugs, skins were fixed in a […] neutral formalin solution for 12 hours or more to confirm how the drugs were distributed in the skins. After mixing the fixed skins with an OCT compound, allowing OCT compound-mixed skins to be frozen in liquid nitrogen of −20° C. or less, and cutting the frozen skins to a thickness of 20 μm through a cryo-section device (−25° C.), sampling was made by attaching the cut skins to glass. After washing samples with deionized water and observing distribution statuses of a model drug (Nile red) in the skins with a fluorescence microscope, observation results are illustrated in FIG. 10.

distribution of model drug (Nile red) in the skin: collected in stratum corneum
Compound: CCN(CC)c1ccc2nc3c4ccccc4c(=O)cc-3oc2c1 [Nile red]
